In assay [1] the test system is MARV WT (Marburg Wild Type). The assay can be described thus: organism not typed. As to conditions: read-out: MARV WT (μM) (Marburg Wild Type). It is filed as cell-based.
In the next assay the target is Cathepsin B (Homo sapiens, UniProt P07858). The assay can be described thus: Cathepsin B enzyme assay. The conditions noted are these: Cat B (μM), Ki by Morrison equation; pH 6.0, substrate Z-Phe-Arg-Amc.
The target in the next assay is T1, Cat K (Homo sapiens, UniProt P43235).
T1 sequence (P43235 115-329): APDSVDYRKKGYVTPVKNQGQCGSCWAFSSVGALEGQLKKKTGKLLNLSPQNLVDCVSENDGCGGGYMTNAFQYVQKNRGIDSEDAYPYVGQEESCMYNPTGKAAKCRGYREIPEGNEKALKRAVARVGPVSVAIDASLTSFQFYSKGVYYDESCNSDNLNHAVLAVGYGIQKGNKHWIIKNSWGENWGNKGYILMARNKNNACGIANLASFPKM
The assay can be described thus: Cat K inhibition. It is filed as biochemical.

Assay [2] deals with EBOV WT (Ebola Wild Type). The assay can be described thus: microbe, parasite or virus in culture. The class given is cell-based. As to conditions: read-out: EBOV WT (μM) (Ebola Wild Type).
In another assay the target is Calpain. The assay can be described thus: Calpain enzyme assay. It is filed as biochemical. As to conditions: Ki by Morrison equation; pH 7.5, 5 mM CaCl2.
In the next assay the target is Cathepsin L (Homo sapiens, UniProt P07711). The assay can be described thus: Cathepsin L enzyme assay. The class given is biochemical. The conditions noted are these: Ki by Morrison equation; pH 5.5, substrate Z-Phe-Arg-Amc; read-out: Cat L. The text has this: Two wells contained DMSO only for controls.
Chain of Cathepsin L (P07711 114-333, species assumed): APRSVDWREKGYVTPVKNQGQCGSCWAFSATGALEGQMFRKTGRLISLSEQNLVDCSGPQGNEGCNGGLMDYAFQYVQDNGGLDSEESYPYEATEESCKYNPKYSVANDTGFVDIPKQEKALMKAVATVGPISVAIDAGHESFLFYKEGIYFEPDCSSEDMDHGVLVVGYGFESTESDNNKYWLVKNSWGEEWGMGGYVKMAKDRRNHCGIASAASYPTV
Velocity was converted to μM/sec.

For a further assay, the target named is Cat S (Homo sapiens, UniProt P25774). Put plainly: Cat S inhibition. It is filed as biochemical.
Chain of Cat S (P25774 115-331): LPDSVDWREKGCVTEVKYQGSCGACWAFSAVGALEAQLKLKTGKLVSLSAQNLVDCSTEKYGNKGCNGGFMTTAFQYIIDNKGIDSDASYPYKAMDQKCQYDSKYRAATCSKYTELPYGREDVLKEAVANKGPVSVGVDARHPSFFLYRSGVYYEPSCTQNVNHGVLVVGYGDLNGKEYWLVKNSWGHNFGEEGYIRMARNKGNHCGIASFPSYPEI
The test system of a further assay is MERS WT. Put plainly: microbe, parasite or virus in culture. It is filed as cell-based.
Another assay concerns Collagen. The assay can be described thus: Fibrosis-Sirius Red Collagen Assay. It is filed as cell-based.
[3] abbreviates: Middle East respiratory syndrome-related coronavirus, read-out: MERS WT (μM).

These results are taken from patent publication US20190085024A1, “Alpha-Ketoamide Inhibitors Of Cysteine Proteases” (Phelix Therapeutics, priority 2017, published 2019).

SMILES strings stand for the structures. Like-named read-outs stand apart in the source and are kept apart here. *1 amine or outer side, *2 acyl side, *3 side chain or, on linkers, in order; H or OH if unused. Where a SMILES comes first, the peptide text is derived from it. [ ]: non-standard residue; d: D form. The star is where a group is joined. 2Nal = N[CH](Cc1ccc2ccccc2c1)C(=O)O; X1 = CCC(C)C(N[*:1])C(=O)C(=O)[*:2]; Cbz = O=C(OCc1ccccc1)*

For `CC(NC(=O)C(Cc1ccc2ccccc2c1)NC(=O)Cc1ccccc1)C(=O)C(=O)NC(Cc1ccccc1)C(=O)NC(C)(C)C(N)=O` (stereo not drawn) [PHELIX206, N-(1-((1-amino-2-methyl-1-oxopropan-2-yl)amino)-1-oxo-3-phenylpropan-2-yl)-3-(3-(naphthalen-2-yl)-2-(2-phenylacetamido)propanamido)-2-oxobutanamide], the IC50 in [1] was found to be 4.68 µM; in assay [2] (Zaire ebolavirus) it was 2.51 µM; with MERS WT (setting [3]), 12.6 µM. Further, the Ki at Cathepsin B was 0.12 µM; on Cat K, over 10000 nM; on Calpain, over 10000 nM; on Cathepsin L it was 6.52 nM; on Cat S it was 3.96 nM.
As for `CC(C)CC(NC(=O)OCc1ccccc1)C(=O)NC(C)C(=O)C(=O)N1CC(C(=O)NC(Cc2ccccc2)C(N)=O)C1` (stereo not drawn) [PHELIX187, benzyl (1-((4-(3-((1-amino-1-oxo-3-phenylpropan-2-yl)carbamoyl)azetidin-1-yl)-3,4-dioxobutan-2-yl)amino)-4-methyl-1-oxopentan-2-yl)carbamate], the IC50 in assay [1] came to 13.5 µM; in [2] (Zaire ebolavirus), 3.66 µM; in the assay on MERS WT (setting [3]) it was 56 µM. Further, the Ki on Cathepsin B turned out to be 0.0479 µM; on Cat K it was 3.8 nM; on Calpain, 45.5 nM; at Cathepsin L, 53.6 nM; on Cat S it was 2.04 nM.
Regarding `CC(C)CC(NC(=O)OCc1ccccc1)C(=O)NC(C)C(=O)C(=O)NCC(=O)NC(Cc1ccc2ccccc2c1)C(N)=O` (stereo not drawn) [PHELIX184, benzyl (1-((4-((2-((1-amino-3-(naphthalen-2-yl)-1-oxopropan-2-yl)amino)-2-oxoethyl)amino)-3,4-dioxobutan-2-yl)amino)-4-methyl-1-oxopentan-2-yl)carbamate], the IC50 in assay [1] was 3.34 µM; in assay [2] (Zaire ebolavirus), 1.87 µM; with MERS WT (setting [3]) it was 7.2 µM. Also, the Ki turned out to be 0.641 µM on Cathepsin B; 0.5 nM at Cat K; 10.3 nM on Calpain; 4.85 nM at Cathepsin L; 1 nM at Cat S.
Turning to `CC(NC(=O)C(Cc1ccccc1)NC(=O)Cc1ccccc1)C(=O)C(=O)NC(Cc1ccccc1)C(=O)NC(Cc1ccc2ccccc2c1)C(N)=O` (stereo not drawn) [PHELIX215, N-(1-((1-amino-3-(naphthalen-2-yl)-1-oxopropan-2-yl)amino)-1-oxo-3-phenylpropan-2-yl)-2-oxo-3-(3-phenyl-2-(2-phenylacetamido)propanamido)butanamide], the IC50 stood at 0.16 µM in assay [1], 0.02 µM in assay [2] and 0.99 µM in the assay with MERS WT (read-out: MERS WT). In addition, the Ki on Cathepsin B was 9.24 µM; on Cat K it was 22.2 nM; at Calpain it was over 10000 nM; at Cathepsin L, 0.18 nM; at Cat S, 0.48 nM.
In the case of `CCC(C)C(NC(=O)C(CC(C)C)NC(=O)C(Cc1ccccc1)NC(=O)OCc1ccccc1)C(=O)C(=O)NCC(=O)NC(Cc1ccc2ccccc2c1)C(N)=O` (stereo not drawn) [PHELIX270, benzyl (1-amino-9-(sec-butyl)-12-isobutyl-2-(naphthalen-2-ylmethyl)-1,4,7,8,11,14-hexaoxo-16-phenyl-3,6,10,13-tetraazahexadecan-15-yl)carbamate] (Cbz-FL[X1]G[2Nal]-NH2; configuration not given here), the figures for the Ki at Cathepsin B, at Calpain and at Cathepsin L were over 10 µM, 0.53 nM and 1.82 nM, respectively. In addition, the IC50 in the assay on Collagen was 3100 nM; with MERS WT (setting [3]) it was over 30 µM.
For `CC(C)CC(NC(=O)C(Cc1ccccc1)NC(=O)OCc1ccccc1)C(=O)NC(Cc1ccccc1)C(=O)C(=O)NC(CCCNC(=N)N)C(N)=O` (stereo not drawn) [PHELIX254, benzyl (1-amino-10-benzyl-6-carbamoyl-1-imino-13-isobutyl-8,9,12,15-tetraoxo-17-phenyl-2,7,11,14-tetraazaheptadecan-16-yl)carbamate], in that order: 0.0432 µM, 3.42 nM, 0.71 nM, 3400 nM and over 30 µM.
